Read-outs that look alike come from different tables or passages of the source. *1 amine or outer side, *2 acyl side, *3 side chain or, on linkers, in order; H or OH if unused. Where a SMILES comes first, the peptide text is derived from it. Where no end group is shown, it is not given here. Side-chain parts run from the residue outwards. [ ]: non-standard residue; d: D form. The star is where a group is joined. γGlu = O=C(O)[C@H](CCC(=O)[*:2])N[*:1]; Palmitoyl = CCCCCCCCCCCCCCCC(=O)*; Aib = CC(C)(N)C(=O)O
What was measured:
Assay type in all cases: cell-based
GLP-1 receptor = molecular target: T1, GLP-1 receptor (Homo sapiens, UniProt P43220); assay: cAMP induction, firefly luciferase reporter assay in HEK293 cells co-transfected with GLP-1 receptor
T1 construct: expressed in transfected cells; host or cells: HEK293
T1 sequence (P43220 24-463): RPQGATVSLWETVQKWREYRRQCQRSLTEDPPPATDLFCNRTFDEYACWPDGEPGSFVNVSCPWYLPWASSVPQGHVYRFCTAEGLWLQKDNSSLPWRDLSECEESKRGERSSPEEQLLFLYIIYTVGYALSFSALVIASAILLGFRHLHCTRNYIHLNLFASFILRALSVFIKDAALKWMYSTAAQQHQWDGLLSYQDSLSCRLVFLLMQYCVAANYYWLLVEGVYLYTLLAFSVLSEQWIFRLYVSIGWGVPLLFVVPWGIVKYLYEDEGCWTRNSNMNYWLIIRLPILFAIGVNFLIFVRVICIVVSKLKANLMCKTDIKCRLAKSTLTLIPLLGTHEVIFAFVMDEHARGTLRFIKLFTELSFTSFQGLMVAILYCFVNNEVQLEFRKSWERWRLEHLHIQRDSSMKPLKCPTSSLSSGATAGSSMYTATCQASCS
Excerpt: (§1) This example describes an exemplary method of testing the biological activity of the peptides of the present disclosures, which method involves assaying cAMP synthesis.

GIP receptor = molecular target: T2, GIP receptor (Homo sapiens, UniProt P48546); assay: cAMP induction, firefly luciferase reporter assay in HEK293 cells co-transfected with GIP receptor
T2 sequence (P48546 22-466): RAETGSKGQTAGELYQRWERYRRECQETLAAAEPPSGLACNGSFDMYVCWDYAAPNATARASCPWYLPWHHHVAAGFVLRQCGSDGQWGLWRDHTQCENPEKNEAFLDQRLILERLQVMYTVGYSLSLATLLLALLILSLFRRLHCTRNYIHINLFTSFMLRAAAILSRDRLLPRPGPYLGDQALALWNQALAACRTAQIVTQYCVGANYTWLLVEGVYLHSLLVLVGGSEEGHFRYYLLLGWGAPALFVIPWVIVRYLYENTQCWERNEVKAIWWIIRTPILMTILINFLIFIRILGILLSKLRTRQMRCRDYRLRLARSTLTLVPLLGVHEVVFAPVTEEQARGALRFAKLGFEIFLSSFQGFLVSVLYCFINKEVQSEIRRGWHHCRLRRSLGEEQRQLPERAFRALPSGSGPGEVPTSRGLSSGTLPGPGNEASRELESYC

glucagon receptor = molecular target: T3, glucagon receptor (Homo sapiens, UniProt P47871); assay: cAMP induction, firefly luciferase reporter assay in HEK293 cells co-transfected with glucagon receptor
T3 construct: expressed in transfected cells; host or cells: HEK293
T3 sequence (P47871 26-477): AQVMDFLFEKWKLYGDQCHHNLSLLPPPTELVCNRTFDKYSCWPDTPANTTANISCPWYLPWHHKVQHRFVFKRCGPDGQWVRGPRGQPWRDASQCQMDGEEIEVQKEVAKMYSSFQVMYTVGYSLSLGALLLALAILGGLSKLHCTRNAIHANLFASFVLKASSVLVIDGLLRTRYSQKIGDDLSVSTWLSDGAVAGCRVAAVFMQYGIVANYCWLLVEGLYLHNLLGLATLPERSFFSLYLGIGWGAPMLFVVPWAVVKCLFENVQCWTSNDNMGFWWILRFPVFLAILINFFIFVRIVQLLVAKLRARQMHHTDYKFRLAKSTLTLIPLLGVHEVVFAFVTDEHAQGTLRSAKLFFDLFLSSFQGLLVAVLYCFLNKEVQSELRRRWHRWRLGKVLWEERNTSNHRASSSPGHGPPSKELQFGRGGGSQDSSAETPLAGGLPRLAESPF
Excerpt: as §1

[1] = EC50 (nM) at GLP-1 Receptor, Table 6, Example 12
[2] = EC50 (nM) at GIP Receptor, Table 6, Example 12
[3] = EC50 (nM) at Glucagon Receptor, Table 6, Example 12
[4] = EC50 (nM) at GLP-1 receptor, Table 16, Example 24
[5] = EC50 (nM) at GIP receptor, Table 16, Example 24
[6] = EC50 (nM) at glucagon receptor, Table 16, Example 24
[7] = Table 3, relative to the activity of the native hormone

| Molecule | EC50 (GLP-1 receptor; [1]) [nM] | EC50 (GIP receptor; [2]) [nM] | EC50 (glucagon receptor; [3]) [nM] | EC50 (GLP-1 receptor; [4]) [nM] | EC50 (GIP receptor; [5]) [nM] | EC50 (glucagon receptor; [6]) [nM] | other results |
| --- | --- | --- | --- | --- | --- | --- | --- |
| CCCCCCCCCCCCCCCCC(CC(=O)Nc1ccc(C[C@H](NC(=O)[C@H](CC(=O)O)NC(=O)[C@H](CO)NC(=O)[C@@H](NC(=O)[C@H](Cc2ccccc2)NC(=O)[C@@H](NC(=O)CNC(=O)[C@H](CCC(N)=O)NC(=O)C(C)(C)NC(=O)[C@@H](N)Cc2c[nH]cn2)[C@@H](C)O)[C@@H](C)O)C(=O)N[C@@H](CO)C(=O)N[C@@H](CCCCN)C(=O)N[C@@H](Cc2ccc(O)cc2)C(=O)N[C@@H](CC(C)C)C(=O)N[C@@H](CC(=O)O)C(=O)N[C@@H](CCC(=O)O)C(=O)N[C@@H](CCCNC(=N)N)C(=O)N[C@@H](C)C(=O)N[C@@H](C)C(=O)N[C@@H](CCC(N)=O)C(=O)N[C@@H](CC(=O)O)C(=O)N[C@@H](Cc2ccccc2)C(=O)N[C@H](C(=O)N[C@@H](CCC(N)=O)C(=O)N[C@@H](Cc2c[nH]c3ccccc23)C(=O)N[C@@H](CC(C)C)C(=O)N[C@@H](CC(C)C)C(=O)N[C@@H](CC(=O)O)C(=O)NCC(=O)NCC(=O)N2CCC[C@H]2C(=O)N[C@@H](CO)C(=O)N[C@@H](CO)C(=O)NCC(=O)N[C@@H](C)C(=O)N2CCC[C@H]2C(=O)N2CCC[C@H]2C(=O)N2CCC[C@H]2C(=O)N[C@@H](CO)C(N)=O)C(C)C)cc1)C(=O)O (stereo partly drawn) [SEQ ID NO: 150] |  |  |  |  |  |  | EC50 (GLP-1 receptor): 0.004 nM; EC50 (GIP receptor): 0.141 nM; EC50 (glucagon receptor): 0.006 nM |
| CCCCCCCCCCCCCCCC(=O)N[C@@H](CCC(=O)NCCCC[C@H](NC(=O)[C@H](CC(=O)O)NC(=O)[C@H](CO)NC(=O)[C@@H](NC(=O)[C@H](Cc1ccccc1)NC(=O)[C@@H](NC(=O)CNC(=O)[C@H](CCC(N)=O)NC(=O)C(C)(C)NC(=O)[C@@H](N)Cc1c[nH]cn1)[C@@H](C)O)[C@@H](C)O)C(=O)N[C@@H](CO)C(=O)N[C@@H](CCCCN)C(=O)N[C@@H](Cc1ccc(O)cc1)C(=O)N[C@@H](CC(C)C)C(=O)N[C@@H](CC(=O)O)C(=O)N[C@@H](CCC(=O)O)C(=O)N[C@@H](CCCNC(=N)N)C(=O)N[C@@H](CCCNC(=N)N)C(=O)N[C@@H](C)C(=O)NC(C)(C)C(=O)N[C@@H](CCC(=O)O)C(=O)N[C@@H](Cc1ccccc1)C(=O)N[C@H](C(=O)N[C@@H](CCC(N)=O)C(=O)N[C@@H](Cc1c[nH]c2ccccc12)C(=O)N[C@@H](CC(C)C)C(=O)N[C@@H](CC(C)C)C(=O)N[C@@H](CC(=O)O)C(=O)NCC(=O)NCC(=O)N1CCC[C@H]1C(=O)N[C@@H](CO)C(=O)N[C@@H](CO)C(=O)NCC(=O)N[C@@H](C)C(=O)N1CCC[C@H]1C(=O)N1CCC[C@H]1C(=O)N1CCC[C@H]1C(=O)N[C@@H](CO)C(N)=O)C(C)C)C(=O)O [compound 79] (H-H[Aib]QGTFTSDK([γGlu-Palmitoyl])SKYLDERRA[Aib]EFVQWLLDGGPSSGAPPPS-NH2; N-terminus assumed) | 0.006 | 0.003 | 0.004 |  |  |  |  |
| H[Aib]QGTFTSDYSKYLDERAAQDFVQWLLDGGPSSGAPPPSK([γGlu-γGlu-Palmitoyl])G-NH2 [SEQ ID NO: 89] |  |  |  | 0.005 | 0.028 | 0.006 | EC50 (GLP-1 receptor; EC50 (nM) at GLP-1 receptor, Table 15, Example 23): 0.004 nM |
| Example 8 peptide: Tyr1, AIB2, Glu16/Lys20 lactam, Leu-Ala-Gly 27-29, GPSSGAPPPS 30-39, or a peptide lacking a lactam [mt-220] |  |  |  |  |  |  | EC50 (GLP-1 receptor; Table 3, Example 8, read-out: GLP-1R EC50): 0.18 nM; GLP-1R relative activity (GLP-1 receptor; [7]): 13.89%; EC50 (GIP receptor; Table 3, Example 8, read-out: GIPR EC50): 10.3 nM; GIPR relative activity (GIP receptor; [7]): 0.19%; GR relative activity (glucagon receptor; [7]): 1.18% |
| CCCCCCCCCCCCCCCC(=O)N[C@@H](CCC(=O)NCCCC[C@H](NC(=O)[C@H](CC(=O)O)NC(=O)[C@H](CO)NC(=O)[C@@H](NC(=O)[C@H](Cc1ccccc1)NC(=O)[C@@H](NC(=O)CNC(=O)[C@H](CCC(N)=O)NC(=O)C(C)(C)NC(=O)[C@@H](N)Cc1c[nH]cn1)[C@@H](C)O)[C@@H](C)O)C(=O)N[C@@H](CO)C(=O)N[C@@H](CCCCN)C(=O)N[C@@H](Cc1ccc(O)cc1)C(=O)N[C@@H](CC(C)C)C(=O)N[C@@H](CC(=O)O)C(=O)N[C@@H](CCC(=O)O)C(=O)N[C@@H](CCCNC(=N)N)C(=O)N[C@@H](C)C(=O)N[C@@H](C)C(=O)N[C@@H](CCC(N)=O)C(=O)N[C@@H](CC(=O)O)C(=O)N[C@@H](Cc1ccccc1)C(=O)N[C@H](C(=O)N[C@@H](CCC(N)=O)C(=O)N[C@@H](Cc1c[nH]c2ccccc12)C(=O)N[C@@H](CC(C)C)C(=O)N[C@@H](CC(C)C)C(=O)N[C@@H](CC(=O)O)C(=O)NCC(=O)NCC(=O)N1CCC[C@H]1C(=O)N[C@@H](CO)C(=O)N[C@@H](CO)C(=O)NCC(=O)N[C@@H](C)C(=O)N1CCC[C@H]1C(=O)N1CCC[C@H]1C(=O)N1CCC[C@H]1C(=O)N[C@@H](CO)C(=O)NCC(N)=O)C(C)C)C(=O)O [SEQ ID NO: 205] (H-H[Aib]QGTFTSDK([γGlu-Palmitoyl])SKYLDERAAQDFVQWLLDGGPSSGAPPPSG-NH2) |  |  |  | 0.002 | 0.004 | 0.005 |  |
| CCCCCCCCCCCCCCCC(=O)N[C@@H](CCC(=O)N[C@@H](CCC(=O)NCCCC[C@H](NC(=O)[C@H](CC(=O)O)NC(=O)[C@H](CO)NC(=O)[C@@H](NC(=O)[C@H](Cc1ccccc1)NC(=O)[C@@H](NC(=O)CNC(=O)[C@H](CCC(N)=O)NC(=O)C(C)(C)NC(=O)[C@@H](N)Cc1ccc(O)cc1)[C@@H](C)O)[C@@H](C)O)C(=O)N[C@@H](CO)C(=O)N[C@H](C(=O)N[C@@H](Cc1ccc(O)cc1)C(=O)N[C@@H](CC(C)C)C(=O)N[C@@H](CC(=O)O)C(=O)N[C@@H](CCCCN)C(=O)N[C@@H](CCC(N)=O)C(=O)N[C@@H](C)C(=O)N[C@@H](C)C(=O)NC(C)(C)C(=O)N[C@@H](CCC(=O)O)C(=O)N[C@@H](Cc1ccccc1)C(=O)N[C@H](C(=O)N[C@@H](CC(N)=O)C(=O)N[C@@H](Cc1c[nH]c2ccccc12)C(=O)N[C@@H](CC(C)C)C(=O)N[C@@H](CC(C)C)C(=O)N[C@@H](C)C(=O)NCC(=O)NCC(=O)N1CCC[C@H]1C(=O)N[C@@H](CO)C(=O)N[C@@H](CO)C(=O)NCC(=O)N[C@@H](C)C(=O)N1CCC[C@H]1C(=O)N1CCC[C@H]1C(=O)N1CCC[C@H]1C(=O)N[C@@H](CO)C(N)=O)C(C)C)[C@@H](C)CC)C(=O)O)C(=O)O [compound 81] (H-Y[Aib]QGTFTSDK([γGlu-γGlu-Palmitoyl])SIYLDKQAA[Aib]EFVNWLLAGGPSSGAPPPS-NH2; N-terminus assumed) | 0.008 | 0.005 | 0.073 |  |  |  |  |
